In the SangsterLogP compilation:

Structure (SMILES) | logP
C=CCCl | 3
Cc1ccc(S(=O)(=O)O)cc1 | 0.09
O=P(OCCCl)(OCCCl)OCCCl | 0.5
O=C1OC(=O)c2ccccc21 | 0.7
C/C=C/C=O | 0.6
C=CC(=O)O | 0.31
C=CC(=O)OCC | 1.2
CCCCCCCCCCO | 4.2
COCCOCCOCCO | -0.7
CCCCC(CC)COC(=O)CCCCC(=O)OCC(CC)CCCC (stereo not drawn) | 8.1
CCCCCOC(C)=O | 2
COCCOCCO | -1.1
CC(C)CC=O | 1.3
C=C(C)CCl | 1.98
CCCCOC(=O)c1ccccc1C(=O)OCc1ccccc1 | 4.5
CC(C)C(=O)O | 0.88
C1=CC2C3C=CC(C3)C2C1 (stereo not drawn) | 2.9
OCC#CCO | -0.73
NCCNCCN | -1.3
COS(=O)(=O)OC | 0.03
CC(C)C=O | 0.4
OCCS | -0.06
CC(=O)OCCl | 0.75
OCCOCCO | -1.98
CCCCOCCOCCOC(C)=O | 1.77
OCCOCCOCCO | -1.2
CC[C@H](C)N | 0.6
CCOCCOC(C)=O | 0.24
